From patent US8242280B2, “Fused ring heterocycle kinase modulators” (SGX Pharmaceuticals, Inc., priority 2007, dated 2012)

How the values were obtained:
[1] = molecular target: T1, unphosphorylated T315I Abl kinase domain (Mus musculus, UniProt P00520, T315I); assay: c-Abl T315I 0P bioassay (pyruvate kinase/lactate dehydrogenase coupled enzyme assay); assay type: biochemical; details: zero phosphorylation state (0P), 10 μM ATP, read-out: AbI T315I 0P IC50
T1 construct: purified and unphosphorylated T315I Abl kinase domain; made in house; host or cells: E. coli BL21(DE3) (Codon+RIL or pSA0145 strain)
T1 sequence (P00520 242-493 T315I limits assumed): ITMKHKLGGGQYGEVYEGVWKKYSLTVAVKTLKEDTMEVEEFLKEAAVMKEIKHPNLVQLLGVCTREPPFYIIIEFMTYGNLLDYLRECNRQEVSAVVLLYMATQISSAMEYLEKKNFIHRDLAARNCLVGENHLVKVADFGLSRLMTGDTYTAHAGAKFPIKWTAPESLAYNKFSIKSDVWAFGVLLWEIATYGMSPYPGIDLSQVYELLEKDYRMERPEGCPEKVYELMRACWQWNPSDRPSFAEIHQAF

Ba/F3 cells, ABL1 WT = Ba/F3 cells, ABL1 WT (Homo sapiens, UniProt P00519); assay: 96-well XTT cell survival assay, Ba/F3 ABL1 WT; assay type: cell-based; details: 72 hours, read-out: ABL1 WT XTT [Ba/F3] IC50
Procedure, shortened: (§1)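 Ba/F3 cells carrying wild-type or T315I ABL1 were seeded at 5000-8000 per well with graded compound concentrations in duplicate and grown 72 hours at 37° C. Survival was read by XTT/PMS reduction after a further 2-6 h, as absorbance at 405 nm with 650 nm background correction.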

Ba/F3 cells, ABL1 T315I = Ba/F3 cells, ABL1 T315I (Homo sapiens, UniProt P00519, T315I, cells depend on it); assay: 96-well XTT cell survival assay, Ba/F3 ABL1 T315I; assay type: cell-based; details: 72 hours, read-out: ABL1 T315I XTT [Ba/F3] IC50
Procedure, shortened: as §1

| Compound | IC50 [1] | GI50 (Ba/F3 cells, ABL1 WT) | GI50 (Ba/F3 cells, ABL1 T315I) |
| --- | --- | --- | --- |
| CN(C)C(=O)C(O)c1cncc(-c2cnc3[nH]cc(-c4cccc(S(C)(=O)=O)c4)c3c2)c1 (stereo not drawn) | > 500 nM | > 1000 nM | > 1000 nM |
| COc1ccccc1-c1c[nH]c2ncc(-c3cccc(C(O)C(=O)N(C)C[C@@H](O)CO)c3)cc12 (stereo partly drawn) | < 50 nM | < 1000 nM | < 1000 nM |
| COc1ccccc1-c1n[nH]c2ncc(-c3cccc(C(O)c4ncco4)c3)cc12 (stereo not drawn) | < 50 nM | < 1000 nM | > 1000 nM |
| COc1ccccc1-c1c[nH]c2ncc(-c3cccc(C(O)c4nccn4C)c3)cc12 (stereo not drawn) | < 50 nM | < 1000 nM | < 1000 nM |
| COc1ccccc1-c1c[nH]c2ncc(-c3ccnc(C(O)C(=O)N(C)C)c3)cc12 (stereo not drawn) | < 50 nM | > 1000 nM | > 1000 nM |
| COc1ccccc1-c1n[nH]c2ncc(-c3cccc(C(O)C(=O)N4CCC(N(C)C)C4)c3)cc12 (stereo not drawn) | < 50 nM | < 1000 nM | < 1000 nM |
| COc1ccccc1-c1n[nH]c2ncc(-c3cccc(C(O)C(=O)N(C)CCN(C)C)n3)cc12 (stereo not drawn) | < 50 nM | > 1000 nM | > 1000 nM |
| CCN(CC)CCN(CC)C(=O)C(O)c1cccc(-c2cnc3[nH]nc(-c4ccccc4OC)c3c2)c1 (stereo not drawn) | < 50 nM | < 1000 nM | < 1000 nM |
| COc1ccccc1-c1n[nH]c2ncc(-c3cccc(C(O)C(=O)N(C)CC#N)c3)cc12 (stereo not drawn) | < 50 nM | < 1000 nM | > 1000 nM |
| CN(C)C(=O)C(O)c1cncc(-c2cnc3[nH]cc(-c4ccnn4C)c3c2)c1 (stereo not drawn) [drawing 465] | < 50 nM | > 1000 nM | > 1000 nM |
| COc1ccccc1-c1n[nH]c2ncc(-c3cccc(C(C)(O)C(=O)N(C)CCN(C)C)c3)cc12 (stereo not drawn) | < 50 nM | > 1000 nM | > 1000 nM |
| COc1ccccc1-c1n[nH]c2ncc(-c3cccc(C(O)C(=O)N4CC(O)C4)c3)cc12 (stereo not drawn) | < 50 nM | > 1000 nM | > 1000 nM |
| COc1ccccc1-c1c[nH]c2ncc(-c3cc(C(O)C(=O)N(C)C)ncn3)cc12 (stereo not drawn) | 50 to 500 nM | > 1000 nM | > 1000 nM |
| COc1ccccc1-c1c[nH]c2ncc(-c3cccc(C(O)C(=O)N(C)CC4CCOCC4)c3)cc12 (stereo not drawn) | < 50 nM | < 1000 nM | < 1000 nM |
| CC[C@H](O)[C@@H](O)c1cccc(-c2cnc3[nH]cc(-c4ccccc4OC)c3c2)c1 | < 50 nM | < 1000 nM | < 1000 nM |
